Measured values reported in US8697883B2, “Cyclopenta[C]pyrrole-2-carboxylate derivatives, preparation thereof and therapeutic use thereof” (Sanofi, priority 2009, dated 2014).
pIC50: −log10 of the molar value.

Columns and labels:
[1] = molecular target: T1, enzyme FAAH (Fatty Acid Amide Hydrolase) (Mus musculus, UniProt O08914); assay: FAAH radioenzymatic test, hydrolysis of anandamide [ethanolamine 1-3H] (protocol 1); assay type: biochemical; conditions: mouse brain membrane homogenate, anandamide 10 μM, 20 min preincubation at 25° C., read-out: IC50 (concentration that inhibits 50% of the control enzymatic activity of FAAH)
T1 construct: The membrane homogenates are prepared extemporaneously by homogenizing the tissues; from tissue; host or cells: mouse brain minus cerebellum, membrane/brain homogenate
T1 sequence (O08914 1-579): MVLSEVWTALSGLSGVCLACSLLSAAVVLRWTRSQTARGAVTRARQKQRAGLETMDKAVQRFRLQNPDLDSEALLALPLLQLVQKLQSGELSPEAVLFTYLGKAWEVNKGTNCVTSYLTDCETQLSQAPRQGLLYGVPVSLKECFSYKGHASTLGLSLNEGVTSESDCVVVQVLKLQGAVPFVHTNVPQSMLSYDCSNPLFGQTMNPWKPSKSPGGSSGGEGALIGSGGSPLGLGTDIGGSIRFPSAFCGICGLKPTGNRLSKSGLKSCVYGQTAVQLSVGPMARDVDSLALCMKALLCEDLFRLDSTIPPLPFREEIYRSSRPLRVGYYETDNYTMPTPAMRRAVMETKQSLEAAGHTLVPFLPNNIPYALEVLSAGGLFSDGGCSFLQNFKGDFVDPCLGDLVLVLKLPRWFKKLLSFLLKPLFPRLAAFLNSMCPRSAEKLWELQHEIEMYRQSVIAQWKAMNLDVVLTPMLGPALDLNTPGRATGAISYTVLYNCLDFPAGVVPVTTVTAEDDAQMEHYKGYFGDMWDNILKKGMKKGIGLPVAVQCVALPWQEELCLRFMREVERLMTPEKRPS
Method: (§1) The compounds of the invention underwent pharmacological tests to determine their inhibitory effect on the enzyme FAAH (Fatty Acid Amide Hydrolase).
Thus, mouse brains (minus the cerebellum) are removed and stored at −80° C. The membrane homogenates are prepared extemporaneously by homogenizing the tissues using a Precellys® machine in reaction buffer (10 mM Tris-HCl, pH=8, 150 mM NaCl and 1 mM ethylenediaminetetraacetic acid (EDTA)). The enzymatic reaction is performed in 96-well Multiscreen filtration plates in a final volume of 70 μL. Reaction buffer supplemented with fatty acid-free bovine serum albumin (BSA, 1 mg/ml) is used for the enzymatic reaction and the dilution of the compounds and of the anandamide [ethanolamine 1-^3H]. The reaction buffer containing BSA (43 μL/well), the diluted test compounds at different concentrations (7 μL/well containing 1% DMSO) and the membrane preparation (10 μL/well, i.e. 200 μg of tissue per test) are successively added to the wells. After preincubation for 20 minutes of the compounds with the enzyme at 25° C., the reaction is started by adding anandamide [ethanolamine 1-^3H] (specific activity of 15-20 Ci/mmol) diluted with cold anandamide (10 μL/well, final concentration of 10 μM, 0.01 μCi per test). After incubation for 20 minutes at 25° C., the enzymatic reaction is stopped by adding a […] solution of active charcoal prepared in 1.5M NaCl buffer and 0.5 M HCl (50 μL/well). The mixture is stirred for 10 minutes and the aqueous phase containing the ethanolamine [1-^3H] is then recovered by filtration under vacuum and counted by liquid scintillation.

male OF1 mice = assay: Test of analgesia: PBQ-induced abdominal stretching; assay type: in vivo, mouse; conditions: 30 mg/kg p.o. at 120 minutes
Method: The in vivo activity of the compounds of the invention was evaluated in a test of analgesia.
Thus, the intraperitoneal (i.p.) administration of PBQ (phenylbenzoquinone, 2 mg/kg in 0.9% sodium chloride solution containing 5% ethanol) to male OF1 mice weighing 25 to 30 g causes abdominal stretching, on average 30 torsions or contractions within a period of 5 to 15 minutes after injection. The test compounds are administered orally (p.o.) or intraperitoneally (i.p.) suspended in Tween 80 at 0.5%, 60 minutes or 120 minutes before the administration of PBQ. Under these conditions, the compounds of the invention that are the most powerful reduce by 35% to 80% the number of stretches induced with PBQ, over a dose range of between 1 and 30 mg/kg.

[2] = molecular target: T1, enzyme FAAH (Fatty Acid Amide Hydrolase); assay: FAAH fluorescent enzymatic test, hydrolysis of AAMC (protocol 2); assay type: biochemical; conditions: mouse brain homogenate, AAMC 10 μM, 20 min preincubation at 25° C., 40 min at 37° C., read-out: IC50 (concentration that inhibits 50% of the control enzymatic activity of FAAH)
Method: as §1
Thus, mouse brains (minus the cerebellum) are withdrawn and stored at −80° C. The brain homogenates are prepared extemporaneously by homogenizing the tissues using a Precellys® machine in reaction buffer (10 mM Tris-HCl, pH=8, 150 mM NaCl and 1 mM ethylenediaminetetraacetic acid (EDTA)). The enzymatic reaction is performed in black polystyrene 384-well plates in a final volume of 50 μL. Reaction buffer supplemented with fatty acid-free bovine serum albumin (BSA, 1 mg/ml) is used for the enzymatic reaction, the dilution of the compounds and the dilution of the AAMC. Reaction buffer containing the BSA (25 μL/well), the diluted test compounds at different concentrations (5 μL/well containing 1% DMSO) and the membrane preparation (10 μL/well, i.e. 200 μg of tissue per test) are successively added to the wells. After preincubation for 20 minutes of the compounds with the enzyme at 25° C., the reaction is started by adding 10 μL of substrate per well (AAMC, final concentration of 10 μM). After incubation for 40 minutes at 37° C., the aminomethyl coumarin (AMC) produced is measured by fluorescent counting (Envision plate reader).

SMILES | pIC50 [1] | melting point [°C] | pIC50 [2] | reduction of the number of stretches induced with PBQ (male OF1 mice) [%]
CCOc1ccc2ccc(O[C@H]3C[C@@H]4CN(C(=O)OCc5nccs5)C[C@@H]4C3)cc2c1 [Compound 3, thiazol-2-ylmethyl (3aR,5s,6aS)-5-[(7-ethoxy-2-naphthyl)oxy]hexahydrocyclopenta[c]pyrrole-2(1H)-carboxylate] | 8.46 |  |  | 
O=C(OCc1csnn1)N1C[C@H]2C[C@H](Oc3ccc(Cl)cc3)C[C@H]2C1 [Compound 7, 1,2,3-thiadiazol-4-ylmethyl (3aR,5s,6aS)-5-(4-chlorophenoxy)hexahydrocyclopenta[c]pyrrole-2(1H)-carboxylate] | 7.05 | 122 to 124 |  | 
NC(=O)c1cc(COC(=O)N2C[C@H]3C[C@H](Oc4ccc(Cl)cc4)C[C@H]3C2)on1 [Compound 12, (3-carbamoylisoxazol-5-yl)methyl (3aR,5s,6aS)-5-(4-chlorophenoxy)hexahydrocyclopenta[c]pyrrole-2(1H)-carboxylate] | 7.72 |  |  | 
CCOc1ccc2ccc(OC3CC4CN(C(=O)OCc5nc(C(=O)NC)cs5)CC4C3)cc2c1 [Compound 23, [4-(methylcarbamoyl)thiazol-2-yl]methyl (3aR,5s,6aS)-5-[(7-ethoxy-2-naphthyl)oxy]hexahydrocyclopenta[c]pyrrole-2(1H)-carboxylate] | 7.47 | 149 to 151 |  | 
CCOc1ccc2ccc(O[C@H]3C[C@@H]4CN(C(=O)OCc5cc(C(N)=O)no5)C[C@@H]4C3)cc2c1 [Compound 24, (3-carbamoylisoxazol-5-yl)methyl (3aR,5s,6aS)-5-[(7-ethoxy-2-naphthyl)oxy]hexahydrocyclopenta[c]pyrrole-2(1H)-carboxylate] |  |  |  | 50
CNC(=O)c1cc(COC(=O)N2C[C@H]3C[C@H](Oc4ccc(Cl)c(F)c4)C[C@H]3C2)on1 [Compound 35, [3-(methylcarbamoyl)isoxazol-5-yl]methyl (3aR,5s,6aS)-5-(4-chloro-3-fluorophenoxy)hexahydrocyclopenta[c]pyrrole-2(1H)-carboxylate] |  |  |  | 50

Second part, led by results:

pIC50 [1] | melting point [°C] | pIC50 [2] | SMILES | reduction of the number of stretches induced with PBQ (male OF1 mice) [%]
7.92 | 131 to 133 |  | CNC(=O)c1cc(COC(=O)N2C[C@H]3C[C@H](Oc4ccc(Cl)c5ccccc45)C[C@H]3C2)on1 [Compound 28, [3-(methylcarbamoyl)isoxazol-5-yl]methyl (3aR,5s,6aS)-5-[(4-chloro-1-naphthyl)oxy]hexahydrocyclopenta[c]pyrrole-2(1H)-carboxylate] | 
8.49 | 100 to 102 |  | NC(=O)c1cc(COC(=O)N2C[C@H]3C[C@H](Oc4ccc(Cl)c(F)c4)C[C@H]3C2)on1 [Compound 34, (3-carbamoylisoxazol-5-yl)methyl (3aR,5s,6aS)-5-(4-chloro-3-fluorophenoxy)hexahydrocyclopenta[c]pyrrole-2(1H)-carboxylate] | 
 |  | 8.13 | CN(C)C(=O)c1cc(COC(=O)N2C[C@H]3C[C@H](Oc4ccc(F)cc4)C[C@H]3C2)on1 [Compound 44, (3-dimethylcarbamoylisoxazol-5-yl)methyl (3aR,5s,6aS)-5-(4-fluorophenoxy)hexahydrocyclopenta[c]pyrrole-2(1H)-carboxylate] | 
 | 154 to 156 | 9.33 | CNC(=O)c1cc(COC(=O)N2C[C@H]3C[C@H](Oc4ccc(-c5ccc(F)cc5)cc4)C[C@H]3C2)on1 [Compound 45, (3-methylcarbamoylisoxazol-5-yl)methyl (3aR,5s,6aS)-5-[(4′-fluorobiphenyl-4-yl)oxy]hexahydrocyclopenta[c]-pyrrole-2(1H)-carboxylate] | 
